Calls of active or inactive are those of the source. The calls are words filed in the database; no cut-off is given here.
How the values were obtained:
MCF7 [1] = test: Antiproliferative activity against human MCF7 cells assessed as inhibition of cell growth incubated for 48 hrs by MTT assay; format: functional, cell-based; settings: MCF7, 48 h
A549 [2] = test: Antiproliferative activity against human A549 cells assessed as inhibition of cell growth incubated for 48 hrs by MTT assay; format: functional, cell-based; settings: A549, 48 h
MDA-MB-231 = test: Antiproliferative activity against human MDA-MB-231 cells assessed as inhibition of cell growth incubated for 48 hrs by MTT assay; format: functional, cell-based; settings: MDA-MB-231, 48 h
HT-29 = test: Antiproliferative activity against human HT-29 cells assessed as inhibition of cell growth incubated for 48 hrs by MTT assay; format: functional, cell-based; settings: HT-29, 48 h
MCF7 [3] = test: Inhibition of colony formation in human MCF7 cells at 5 to 20 nM incubated for 2 weeks in 5% CO2 at 37 degC by crystal violet staining based analysis; format: functional, cell-based; settings: dose 5-20 nM
Tubulin = test: Inhibition of tubulin polymerization (unknown origin) measured for 60 mins by fluorescence based analysis; format: protein-complex assay, Homo sapiens
[4] = biological target: Tubulin beta (Homo sapiens) (UniProt P68371+Q9H4B7+Q13509+P04350+Q3ZCM7+P07437+Q13885+Q9BVA1+Q9BUF5+A6NNZ2); test: Binding affinity to beta-tubulin (unknown origin) assessed as decrease in beta-tubulin/EBI adduct formation at 0.2 to 25 uM incubated for 2 hrs followed by incubation with EBI for 1.5 hrs by EBI competition based western blot analysis; format: protein assay; settings: dose 0.2-25 µM, time 3.5 hrs
MCF7 [5] = test: Induction of cell cycle arrest in human MCF7 cells assessed as proportion of cells at G1 phase at 6.25 nM incubated for 24 hrs by PI staining based flow cytometry (reference value: 64.5%); format: functional
MCF7 [6] = test: Induction of cell cycle arrest in human MCF7 cells assessed as proportion of cells at G2 phase at 6.25 nM incubated for 24 hrs by PI staining based flow cytometry (reference value: 14.4%); format: functional
MCF7 [7] = test: Induction of cell cycle arrest in human MCF7 cells assessed as proportion of cells at S phase at 6.25 nM incubated for 24 hrs by PI staining based flow cytometry (reference value: 21.1%); format: functional
MCF7 [8] = test: Induction of cell cycle arrest in human MCF7 cells assessed as proportion of cells at G1 phase at 25 nM incubated for 24 hrs by PI staining based flow cytometry (reference value: 64.5%); format: functional
MCF7 [9] = test: Induction of cell cycle arrest in human MCF7 cells assessed as proportion of cells at G2 phase at 25 nM incubated for 24 hrs by PI staining based flow cytometry (reference value: 14.4%); format: functional
MCF7 [10] = test: Induction of cell cycle arrest in human MCF7 cells assessed as proportion of cells at S phase at 25 nM incubated for 24 hrs by PI staining based flow cytometry (reference value: 21.1%); format: functional
MCF7 [11] = test: Induction of cell cycle arrest in human MCF7 cells assessed as proportion of cells at G2 phase at 25 nM incubated for 6 hrs by PI staining based flow cytometry (reference value: 14.4%); format: functional
MCF7 [12] = test: Induction of cell cycle arrest in human MCF7 cells assessed as proportion of cells at G1 phase at 25 nM incubated for 12 hrs by PI staining based flow cytometry (reference value: 64.5%); format: functional
MCF7 [13] = test: Induction of cell cycle arrest in human MCF7 cells assessed as proportion of cells at G2 phase at 25 nM incubated for 12 hrs by PI staining based flow cytometry (reference value: 14.4%); format: functional
MCF7 [14] = test: Induction of cell cycle arrest in human MCF7 cells assessed as proportion of cells at S phase at 25 nM incubated for 12 hrs by PI staining based flow cytometry (reference value: 21.1%); format: functional
MCF7 [15] = test: Induction of cell cycle arrest in human MCF7 cells assessed as increase in CDK7 protein expression at 6.25 to 50 nM incubated for 24 hrs by western blot analysis; format: functional, cell-based; settings: dose 6.25-50 nM
MCF7 [16] = test: Induction of cell cycle arrest in human MCF7 cells assessed as increase in Cdc25c protein expression at 6.25 to 50 nM incubated for 24 hrs by western blot analysis; format: functional, cell-based; settings: dose 6.25-50 nM
MCF7 [17] = test: Induction of apoptosis in human MCF7 cells at 12.5 to 50 nM incubated for 24 hrs by AnnexinV-FITC/PI staining based flow cytometry; format: functional, cell-based; settings: dose 12.5-50 nM
MCF7 [18] = test: Induction of apoptosis in human MCF7 cells at 50 nM incubated for 12 to 48 hrs by AnnexinV-FITC/PI staining based flow cytometry; format: functional, cell-based; settings: time 12-48 hrs, TDE = time-dependent effect
MCF7 [19] = test: Induction of apoptosis in human MCF7 cells assessed as increase in Bax protein expression at 6.25 to 50 nM incubated for 24 hrs by western blot analysis; format: functional, cell-based; settings: dose 6.25-50 nM
MCF7 [20] = test: Induction of apoptosis in human MCF7 cells assessed as increase in Bim protein expression at 6.25 to 50 nM incubated for 24 hrs by western blot analysis; format: functional, cell-based; settings: dose 6.25-50 nM
MCF7 [21] = test: Induction of apoptosis in human MCF7 cells assessed as increase in cleaved PARP protein expression at 6.25 to 50 nM incubated for 24 hrs by western blot analysis; format: functional, cell-based; settings: dose 6.25-50 nM
MCF7 [22] = test: Induction of apoptosis in human MCF7 cells assessed as increase in cleaved caspase-3 protein expression at 6.25 to 50 nM incubated for 24 hrs by western blot analysis; format: functional, cell-based; settings: dose 6.25-50 nM
Tubulin (Homo sapiens) = Tubulin (Homo sapiens) (UniProt P68371+Q9H4B7+P0DPH7+P68366+Q13509+Q71U36+P04350+Q3ZCM7+P07437+P68363+Q9BQE3+Q6PEY2+Q13885+Q9BVA1+Q9BUF5); test: Inhibition of tubulin polymerization in human MCF7 cells assessed as disruption of microtubule network into punctate at 25 to 200 nM incubated for 8 hrs by DAPI staining based immunofluorescence assay; format: cell-based; settings: dose 25-200 nM
HUVEC = test: Anti-vascular activity in human HUVEC cells assessed as reduction in length of capillary-like tubules incubated for 6 hrs by Matrigel based inverted fluorescence microscopy; format: functional, cell-based; settings: dose 6.25-50 nM
A549 [23] = test: Inhibition of cell migration in human A549 cells at 2.5 to 10 nM incubated for 12 to 48 hrs by fluorescent inverted microscopy; format: functional, cell-based; settings: dose 2.5-10 nM, time 12-48 hrs
A549 [24] = test: Inhibition of cell migration in human A549 cells assessed as decrease in number of cells passing through membrane at 6.25 to 50 nM incubated for 24 hrs by transwell assay; format: functional, cell-based; settings: dose 6.25-50 nM
MCF7 [25] = test: Antitumor activity against human MCF7 cells xenografted in BALB/c mouse assessed as inhibition of tumor growth by measuring decrease in tumor weight at 20 mg/kg, ip administered every 3 days for 21 days; format: functional; settings: MCF7, 504 h, time 21 day, read-out: TGI
MCF7 [26] = test: Antitumor activity against human MCF7 cells xenografted in BALB/c mouse assessed as inhibition of tumor growth by measuring decrease in tumor weight at 10 mg/kg, ip administered every 3 days for 21 days; format: functional; settings: MCF7, 504 h, time 21 day, read-out: TGI
[27] = Toxicity against BALB/c mouse xenografted with human MCF7 cells assessed as body weight changes at 5 to 20 mg/kg, ip administered every 3 days for 21 days; format: organism-based; settings: in vivo, 504 h, dose 5-20 mg/kg, time 21 day

## COc1cc(C(=O)n2nc(N)cc2-c2ccc(C)cc2)cc(OC)c1OC
MCF7 [1]
  IC50: 40 nM
A549 [2]
  IC50: 390 nM
MDA-MB-231
  IC50: 40 nM
HT-29
  IC50: 60 nM
MCF7 [3]
  inhibition: Active
Tubulin
  IC50: 1870 nM
[4]
  Activity: Active
MCF7 [5]
  Activity: 53.3%
MCF7 [6]
  Activity: 28.3%
MCF7 [7]
  Activity: 18.4%
MCF7 [8]
  Activity: 7.65%
MCF7 [9]
  Activity: 80.2%
MCF7 [10]
  Activity: 10.65%
MCF7 [11]
  Activity: 46.7%
MCF7 [12]
  Activity: 14.3%
MCF7 [13]
  Activity: 62.8%
MCF7 [14]
  Activity: 22.9%
MCF7 [15]
  Activity: Active
MCF7 [16]
  Activity: Active
MCF7 [17]
  Activity: Dose-Dependent Effect
MCF7 [18]
  Activity: Tde
MCF7 [19]
  Activity: Active
MCF7 [20]
  Activity: Active
MCF7 [21]
  Activity: Active
MCF7 [22]
  Activity: Active
Tubulin (Homo sapiens)
  inhibition: Active
HUVEC
  Activity: Dose-Dependent Effect
A549 [23]
  inhibition: Dose-Dependent Effect
A549 [24]
  inhibition: Active
MCF7 [25]
  inhibition in vivo at 20 mg/kg: 69%
MCF7 [26]
  inhibition in vivo at 10 mg/kg: 36.1%
[27]
  Activity: Non-Toxic

— ChEMBL document CHEMBL5512613, “Design and synthesis of novel 3-amino-5-phenylpyrazole derivatives as tubulin polymerization inhibitors targeting the colchicine-binding site” (Eur J Med Chem, 2024)
